Data as given in patent US20250205344A1, “2,4-DIOXOTETRAHYDROPYRIMIDINYL DERATIVES AS DEGRONS IN PROTACS” (GLAXOSMITHKLINE INTELLECTUAL PROPERTY DEVELOPMENT LIMITED, priority 2022, published 2025).
Counter-ions that a name gives are not always drawn.

Tests used:
Type in all cases: cell-based
[1] = target: T1, Androgen Receptor (Homo sapiens, UniProt P10275, T878A); test: Androgen Receptor Degradation Assay (Nano-Glo HiBiT); details: LNCaP, 18 h, HiBiT-tagged AR in human LnCaP cells, read-out: mean asymptote max
T1 construct: the AR gene was modified, using CRISPR/Cas9 editing, so the expressed AR protein included an 11 amino acid HiBiT tag; endogenous in cells; host or cells: clonal LnCaP-derived line, AR gene edited by CRISPR/Cas9
Method in brief: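 LnCaP cells with CRISPR-knocked-in N-terminal HiBiT-tagged AR (10,000/well) treated 18 h at 37 °C with PROTACs over 11 threefold concentrations; lytic HiBiT luminescence normalised to DMSO (0%) and cell-free (100%) controls. Relative DC50 = 4-parameter fit inflection; absolute DC50 = 50% degradation interpolation; Dmax = maximum observed degradation.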

[2] = target: T2, Androgen Receptor dual T878A/L702H mutant protein (Homo sapiens, UniProt P10275, L702H/T878A); test: Dual Mutant (T878A/L702H) Androgen Receptor Degradation Assay (HTRF); details: MDA-PCa-2b, 18 h, human MDA PCa 2b cells, read-out: mean asymptote max
T2 construct: Androgen Receptor dual T878A/L702H mutant protein in human MDA PCa 2b (ATCC, #CRL-2422) cells; host or cells: MDA PCa 2b
T2 sequence (P10275 1-920 L702H/T878A): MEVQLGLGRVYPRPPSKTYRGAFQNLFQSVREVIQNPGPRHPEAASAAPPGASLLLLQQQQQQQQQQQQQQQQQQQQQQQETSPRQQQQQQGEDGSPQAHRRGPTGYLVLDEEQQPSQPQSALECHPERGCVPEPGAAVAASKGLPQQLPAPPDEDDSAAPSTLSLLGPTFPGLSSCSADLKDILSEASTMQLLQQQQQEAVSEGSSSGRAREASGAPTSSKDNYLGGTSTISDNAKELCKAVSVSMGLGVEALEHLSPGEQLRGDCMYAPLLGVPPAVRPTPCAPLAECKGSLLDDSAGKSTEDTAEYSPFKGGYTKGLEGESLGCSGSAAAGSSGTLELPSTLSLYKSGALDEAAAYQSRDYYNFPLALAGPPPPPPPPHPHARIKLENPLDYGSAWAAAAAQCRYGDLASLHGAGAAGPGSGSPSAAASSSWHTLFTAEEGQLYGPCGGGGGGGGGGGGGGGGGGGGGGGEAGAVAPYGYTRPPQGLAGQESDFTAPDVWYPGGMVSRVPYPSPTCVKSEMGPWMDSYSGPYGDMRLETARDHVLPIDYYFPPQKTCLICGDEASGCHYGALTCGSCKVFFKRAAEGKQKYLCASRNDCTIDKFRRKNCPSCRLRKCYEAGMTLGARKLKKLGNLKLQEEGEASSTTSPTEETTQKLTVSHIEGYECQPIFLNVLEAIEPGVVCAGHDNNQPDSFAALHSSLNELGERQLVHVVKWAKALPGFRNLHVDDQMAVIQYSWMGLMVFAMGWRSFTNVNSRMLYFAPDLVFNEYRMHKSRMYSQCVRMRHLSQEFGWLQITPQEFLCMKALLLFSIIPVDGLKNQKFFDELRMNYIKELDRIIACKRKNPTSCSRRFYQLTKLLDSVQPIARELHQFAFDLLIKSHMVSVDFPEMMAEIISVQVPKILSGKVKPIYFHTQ
Experimental: Degradation of Androgen Receptor dual T878A/L702H mutant protein in human MDA PCa 2b (ATCC, #CRL-2422) cells treated with PROTACs was quantified using the HTRF Human Androgen Receptor Detection Kit (PerkinElmer, #64ANDRPEH) in 384 well assay plate format. 10 mM DMSO(Sigma-Aldrich, #472301) stock solutions of PROTACs were prepared and diluted across an 11 concentration, 3-fold increment range, and 25 nL dispensed into a white opaque bottomed 384 well assay plate (Thermofisher, #164610) using an acoustic ECHO dispenser (Labcyte). Cells were cultured in growth medium (BRFF-HPC-1 (Athena ES, #0403) supplemented with 20% FBS (Gibco, #10099-141), penicillin 50 U/mL and streptomycin 50 ug/mL (Gibco, #15140-122)) in collagen I or poly-D-lysine coated T175 flasks (Corning, #356487 or #356539, respectively). For the assay, cells were harvested from the flask, centrifuged at 200 g for 5 min and then resuspended in the growth medium. 25 μl of cell suspension containing 10,000 cells was dispensed into each well of the assay plate containing the test compounds, which was then incubated for 18 h at 37° C./5% CO2. Control wells were included on each assay plate, with assay medium without cells being the no AR remaining 100% effect control, and cells treated with DMSO vehicle only, without PROTAC, the 0% effect control. After 18 h incubation 8 μl of supplemented lysis buffer from HTRF kit was added to each well and the plate shaken at 500 rpm for 1 h at room temperature. 8 μl of antibody mix in Detection buffer from HTRF kit was added to each well and the plate was incubated for 2 h in dark at room temperature. The fluorescence was measured at both 620 nm and 665 nm using an excitation wavelength of 337 nm with a PHERAstar microplate reader (BMG Labtech) and the % AR protein remaining in each well was calculated by normalising the HTRF ratio (665 nm signal/620 nm signal) value to the control wells mentioned above. Parameters corresponding to the potency and efficacy estimates of the PROTACs were obtained from these normalised values using curve fitting software (IDBS ActivityBase). These included the DC50 and the Dmax estimates. Two versions of the DC50, called relative DC50 and absolute DC50, were typically generated. These are the inflection point of a fitted 4 parameter sigmoidal response curve and the interpolated concentration of PROTAC corresponding to 50% of the protein being degraded, respectively. The Dmax parameter was the maximum experimentally observed degradation and the asymptote max parameter the fitted response curve asymptote maximum.

[3] = target: T3, RIPK2 (Homo sapiens, UniProt O43353); test: RIPK2 Degradation Assay (Nano-Glo HiBiT); details: HiBiT-tagged RIPK2 in HEK 293 cells, 18 h
T3 construct: the RIPK2 gene was modified, using CRISPR/Cas9 editing, so the expressed RIPK2 protein included an 11 amino acid HiBiT tag; endogenous in cells; host or cells: clonal HEK 293-derived line, RIPK2 gene edited by CRISPR/Cas9 (heterozygous)
Text: Degradation of RIPK2 protein in human embryonic kidney (HEK 293) cells treated with PROTACs was quantified using the Nano-Glo® HiBiT Lytic Detection System (Promega) in 384 well assay plate format. A clonal HEK 293 derived cell line was first established in which the RIPK2 gene was modified, using CRISPR/Cas9 editing, so the expressed RIPK2 protein included an 11 amino acid HiBiT tag at it's amino-terminus. The cell lines were heterozygotic for the HiBIT modification. Cells were cryopreserved in aliquots in 90% foetal bovine serum (FBS), 10% DMSO and stored at −150° C. 10 mM DMSO stock solutions of PROTACs were prepared and diluted across an 11 concentration, 3 fold increment range, and 25 nL dispensed into a white opaque bottomed 384 well assay plate (Thermofisher) using an acoustic ECHO dispenser (Labcyte). For the assay, a cryopreserved vials of cells was rapidly thawed and suspended in 30 mL of assay medium (FluoroBrite™ DMEM supplemented with 10% heat inactivated FBS, penicillin 50 U/mL and streptomycin 50 ug/mL (Thermofisher)). The cell suspension was centrifuged at 400 g for 5 min and the pellet resuspended in assay medium. 25 μL of cell suspension containing 10,000 cells was dispensed into each well of the assay plate containing the test compounds, which was then incubated for 18 h at 37° C./5% CO2. Control wells were included on each assay plate, with assay medium without cells being the no RIPK2 remaining 100% effect control, and cells treated with DMSO vehicle only, without PROTAC, the 0% effect control. 25 μL of Nano-Glo® HiBiT lysis buffer supplemented with LgBiT protein and Nano-Glo® substrate (Promega) was added to each well and the plate shaken at 500 rpm for 10 min at room temperature. The intensity of luminescence was measured using a PHERAstar microplate reader (BMG Labtech) and the % RIPK2 protein remaining in each well calculated by normalising the raw luminescence value to the above control wells. Parameters corresponding to the potency and efficacy estimates of the PROTACs were obtained from these normalised luminescence values using software (IDBS ActivityBase). These included the DC50 and the Dmax estimates. Two versions of the DC50, called relative DC50 and absolute DC50, were typically generated. These are the inflection point of a fitted 4 parameter sigmoidal response curve and the interpolated concentration of PROTAC corresponding to 50% of the protein being degraded, respectively. The Dmax parameter was the maximum experimentally observed degradation and the asymptote max parameter the fitted response curve asymptote maximum.

T1 sequence (P10275 whole entry T878A): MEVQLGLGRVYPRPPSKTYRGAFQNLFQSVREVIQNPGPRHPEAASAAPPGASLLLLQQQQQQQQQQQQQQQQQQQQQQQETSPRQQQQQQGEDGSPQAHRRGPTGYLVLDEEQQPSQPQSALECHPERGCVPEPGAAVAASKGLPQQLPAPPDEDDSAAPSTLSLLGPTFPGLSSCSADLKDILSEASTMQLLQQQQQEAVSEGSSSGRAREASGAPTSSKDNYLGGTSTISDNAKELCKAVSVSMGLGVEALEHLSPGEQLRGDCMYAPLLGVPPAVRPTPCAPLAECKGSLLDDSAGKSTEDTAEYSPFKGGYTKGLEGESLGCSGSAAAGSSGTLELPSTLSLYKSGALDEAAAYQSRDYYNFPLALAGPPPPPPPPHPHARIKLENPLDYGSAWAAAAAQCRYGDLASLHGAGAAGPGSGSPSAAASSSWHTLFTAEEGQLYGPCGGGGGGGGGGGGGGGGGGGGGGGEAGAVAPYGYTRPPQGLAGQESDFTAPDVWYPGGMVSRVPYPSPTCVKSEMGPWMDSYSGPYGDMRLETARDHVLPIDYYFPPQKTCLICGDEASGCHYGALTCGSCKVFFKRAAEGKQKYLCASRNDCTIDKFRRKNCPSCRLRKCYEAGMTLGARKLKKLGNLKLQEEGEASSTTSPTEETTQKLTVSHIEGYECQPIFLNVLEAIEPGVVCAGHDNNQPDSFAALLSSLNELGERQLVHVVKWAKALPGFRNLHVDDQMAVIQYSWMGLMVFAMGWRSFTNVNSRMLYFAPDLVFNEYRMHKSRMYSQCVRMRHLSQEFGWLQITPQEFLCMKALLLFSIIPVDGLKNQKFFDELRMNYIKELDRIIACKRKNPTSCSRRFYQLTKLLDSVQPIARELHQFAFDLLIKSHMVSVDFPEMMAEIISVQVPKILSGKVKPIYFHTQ
T1 sequence (Q96SW2 whole entry partner): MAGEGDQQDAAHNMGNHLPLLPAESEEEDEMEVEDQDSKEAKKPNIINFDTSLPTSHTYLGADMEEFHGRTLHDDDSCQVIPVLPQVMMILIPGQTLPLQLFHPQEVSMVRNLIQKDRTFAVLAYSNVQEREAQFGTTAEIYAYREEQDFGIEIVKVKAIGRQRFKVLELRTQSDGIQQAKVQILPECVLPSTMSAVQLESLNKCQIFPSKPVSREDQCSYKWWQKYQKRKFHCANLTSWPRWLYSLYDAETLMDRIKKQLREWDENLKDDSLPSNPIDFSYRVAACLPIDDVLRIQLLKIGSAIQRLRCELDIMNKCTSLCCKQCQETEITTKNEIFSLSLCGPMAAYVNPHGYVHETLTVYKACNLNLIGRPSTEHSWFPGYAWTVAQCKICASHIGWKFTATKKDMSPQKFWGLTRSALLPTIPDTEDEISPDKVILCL
T1 sequence (Q16531 whole entry partner): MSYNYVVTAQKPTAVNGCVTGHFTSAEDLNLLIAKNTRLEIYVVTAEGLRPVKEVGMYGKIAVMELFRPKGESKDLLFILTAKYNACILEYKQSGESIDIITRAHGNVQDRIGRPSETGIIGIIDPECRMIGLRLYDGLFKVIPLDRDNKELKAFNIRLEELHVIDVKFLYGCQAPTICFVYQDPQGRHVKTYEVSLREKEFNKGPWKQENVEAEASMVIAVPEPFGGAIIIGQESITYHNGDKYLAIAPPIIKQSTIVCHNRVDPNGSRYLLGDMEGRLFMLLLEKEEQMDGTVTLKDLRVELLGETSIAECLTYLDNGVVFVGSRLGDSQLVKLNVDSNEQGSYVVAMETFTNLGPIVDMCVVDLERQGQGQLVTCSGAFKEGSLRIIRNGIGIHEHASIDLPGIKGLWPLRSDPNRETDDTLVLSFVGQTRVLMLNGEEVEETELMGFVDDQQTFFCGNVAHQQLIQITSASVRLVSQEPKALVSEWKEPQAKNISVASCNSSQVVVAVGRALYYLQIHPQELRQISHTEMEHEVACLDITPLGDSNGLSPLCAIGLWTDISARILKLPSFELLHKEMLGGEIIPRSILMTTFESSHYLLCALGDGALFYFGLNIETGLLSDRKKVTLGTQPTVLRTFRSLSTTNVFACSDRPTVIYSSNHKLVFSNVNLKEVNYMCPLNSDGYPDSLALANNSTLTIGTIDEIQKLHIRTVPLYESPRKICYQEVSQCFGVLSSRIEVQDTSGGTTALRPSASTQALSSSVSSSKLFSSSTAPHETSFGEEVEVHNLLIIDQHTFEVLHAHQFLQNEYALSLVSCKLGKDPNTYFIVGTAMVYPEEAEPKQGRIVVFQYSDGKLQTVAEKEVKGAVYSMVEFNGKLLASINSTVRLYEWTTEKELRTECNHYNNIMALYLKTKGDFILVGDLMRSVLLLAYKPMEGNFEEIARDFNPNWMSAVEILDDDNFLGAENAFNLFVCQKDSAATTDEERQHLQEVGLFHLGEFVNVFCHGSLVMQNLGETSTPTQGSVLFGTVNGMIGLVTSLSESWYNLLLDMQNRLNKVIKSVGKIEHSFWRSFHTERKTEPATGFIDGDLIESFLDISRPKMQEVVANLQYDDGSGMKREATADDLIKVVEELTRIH
T3 sequence (O43353 whole entry): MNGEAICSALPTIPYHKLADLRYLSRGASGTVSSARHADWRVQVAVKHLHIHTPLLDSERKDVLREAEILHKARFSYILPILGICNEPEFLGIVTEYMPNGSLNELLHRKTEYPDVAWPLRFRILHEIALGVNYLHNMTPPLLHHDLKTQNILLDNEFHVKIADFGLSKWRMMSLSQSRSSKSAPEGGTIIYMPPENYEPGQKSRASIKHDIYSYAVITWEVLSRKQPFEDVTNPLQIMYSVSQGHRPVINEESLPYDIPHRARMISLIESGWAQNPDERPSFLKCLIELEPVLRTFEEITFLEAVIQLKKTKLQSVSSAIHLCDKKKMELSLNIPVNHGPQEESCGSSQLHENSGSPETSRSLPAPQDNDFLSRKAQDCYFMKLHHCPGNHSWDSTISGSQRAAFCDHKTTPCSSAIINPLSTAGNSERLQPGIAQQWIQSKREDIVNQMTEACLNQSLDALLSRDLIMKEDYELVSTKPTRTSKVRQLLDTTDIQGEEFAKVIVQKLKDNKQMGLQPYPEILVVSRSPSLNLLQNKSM

SMILES | Dmax [1] | Dmax [2] | Mean asymptote max (%) [3] | mean relative pDC50 [3]
CC1(C)[C@H](NC(=O)c2ccc(N3CCC(CN4CCC(n5ccc6c(N7CCC(=O)NC7=O)cccc65)CC4)CC3)nc2)C(C)(C)[C@H]1Oc1ccc(C#N)c(Cl)c1 [EAR29, N-((1r,3r)-3-(3-chloro-4-cyanophenoxy)-2,2,4,4-tetramethylcyclobutyl)-6-(4-((4-(4-(2,4-dioxotetrahydropyrimidin-1(2H)-yl)-1H-indol-1-yl)piperidin-1-yl)methyl)piperidin-1-yl)nicotinamide formate] | ≥ 50% | ≥ 55% | – | –
CC1(C)[C@H](NC(=O)c2cnc(N3CCC(CN4CCC(n5ncc6c(N7CCC(=O)NC7=O)cccc65)CC4)CC3)cn2)C(C)(C)[C@H]1Oc1ccc(C#N)c(Cl)c1 [EAR37, N-((1r,3r)-3-(3-Chloro-4-cyanophenoxy)-2,2,4,4-tetramethylcyclobutyl)-5-(4-((4-(4-(2,4-dioxotetrahydropyrimidin-1(2H)-yl)-1H-indazol-1-yl)piperidin-1-yl)methyl)piperidin-1-yl)pyrazine-2-carboxamide hydrochloride] | ≥ 50% | ≥ 55% | – | –
CC1(C)[C@H](NC(=O)c2ccc(CCCCCCN3CCC(n4ccc5c(N6CCC(=O)NC6=O)cccc54)CC3)cc2)C(C)(C)[C@H]1Oc1ccc(C#N)c(C(F)(F)F)c1 [EAR75, N-((1r,3r)-3-(4-Cyano-3-(trifluoromethyl)phenoxy)-2,2,4,4-tetramethylcyclobutyl)-4-(6-(4-(4-(2,4-dioxotetrahydropyrimidin-1(2H)-yl)-1H-indol-1-yl)piperidin-1-yl)hexyl)benzamide] | ≥ 50% | ≥ 55% | – | –
CC1(C)[C@H](NC(=O)c2ccc(N3CCC(CN4CCC(n5ccc6c(N7CCC(=O)NC7=O)nccc65)CC4)CC3)nn2)C(C)(C)[C@H]1Oc1ccc(C#N)c2ncccc12 [EAR251, N-((1r,3r)-3-((8-Cyanoquinolin-5-yl)oxy)-2,2,4,4-tetramethylcyclobutyl)-6-(4-((4-(4-(2,4-dioxotetrahydropyrimidin-1(2H)-yl)-1H-pyrrolo[3,2-c]pyridin-1-yl)piperidin-1-yl)methyl)piperidin-1-yl)pyridazine-3-carboxamide hydrochloride] | ≥ 50% | ≥ 55% | – | –
CC(C)(C)S(=O)(=O)c1cc2c(Nc3ccc4scnc4c3)ccnc2cc1OCCCCCCCC(=O)N1CCC(n2ccc3c(N4CCC(=O)NC4=O)cccc32)CC1 [Example R1, 1-(1-(1-(8-((4-(Benzo[d]thiazol-5-ylamino)-6-(tert-butylsulfonyl)quinolin-7-yl)oxy)octanoyl)piperidin-4-yl)-1H-indol-4-yl)dihydropyrimidine-2,4(1H,3H)-dione] | – | – | 96% | 8.5
CC(C)(C)S(=O)(=O)c1cc2c(Nc3ccc4scnc4c3)ccnc2cc1OCCCN1CCC(c2cnc(C(=O)N3CCC(n4ccc5c(N6CCC(=O)NC6=O)cccc54)CC3)cn2)CC1.O=CO [Example R2, 1-(1-(1-(5-(1-(3-((4-(Benzo[d]thiazol-5-ylamino)-6-(tert-butylsulfonyl)quinolin-7-yl)oxy)propyl)piperidin-4-yl)pyrazine-2-carbonyl)piperidin-4-yl)-1H-indol-4-yl)dihydropyrimidine-2,4(1H,3H)-dione formate] | – | – | 88% | 8.5
CC(C)n1ccc2c(N3CCC(=O)NC3=O)cc(C(=O)NCCOCCOCCOc3cc4nccc(Nc5ccc6scnc6c5)c4cc3S(=O)(=O)C(C)(C)C)cc21 [Example R3, N-(2-(2-(2-((4-(Benzo[d]thiazol-5-ylamino)-6-(tert-butylsulfonyl)quinolin-7-yl)oxy)ethoxy)ethoxy)ethyl)-4-(2,4-dioxotetrahydropyrimidin-1(2H)-yl)-1-isopropyl-1H-indole-6-carboxamide] | – | – | 92% | 8.3
